Patent publication US20060079453A1, “Hla binding peptides and their uses” (priority 2002, published 2006)
pIC50: −log10 of the molar value. Read-outs that look alike come from different tables or passages of the source. No end group written: not given here.

Tests used:
Test in all cases: biochemical
Format in all cases: binding
HLA-DR DRB1*0802 (DR8) = HLA-DR DRB1*0802 (DR8) (Homo sapiens, UniProt P01903+P01911, A100R/A103L/A169T/F76Y/H45Y/I96F/K41T/L162R/M171V/P40S/Q125H/Q178H/Q39Y/Q99D/R218S/R42G/S66Y/V115G/W38E)
HLA-DR DRB1*0701 (DR7) = HLA-DR DRB1*0701 (DR7) (Homo sapiens, UniProt P01903+P01911, A100R/A102G/A103Q/D57E/D86V/E43K/F76Y/K127E/L162R/M171V/P40G/Q125H/Q99D/R33Q/R42Y/R54Q/S133A/S66F/T210M/V115G/Y107V/Y59L/Y89S)
HLA-DR DRB1*1302 (DR13) = HLA-DR DRB1*1302 (DR13) (Homo sapiens, UniProt P01903+P01911, A100E/A169T/K41T/L162R/M171V/P40S/Q125H/Q178H/Q39Y/Q99D/R42S/S66N/T262R/V115G/W38E/Y61H); details: DRBI *1302
HLA-DR DRB1*1101 (DR11) = HLA-DR DRB1*1101 (DR11) (Homo sapiens, UniProt P01903+P01911, A100R/A169T/A87E/I96F/K41T/L162R/M171V/P40S/Q125H/Q178H/Q39Y/Q99D/R42S/S66Y/T262R/V115G/W38E); details: DRB1 *1101
HLA-DR DRB5*0101 (DR51) = HLA-DR DRB5*0101 (DR51) (Homo sapiens, UniProt P01903+Q30154); details: DRB5 *0101
HLA-DR DRB1*0301 (DR3) = HLA-DR DRB1*0301 (DR3) (Homo sapiens, UniProt P01903+P01911, A100K/A102G/A103R/A169T/F55Y/I96L/K41T/L162R/M171V/P40S/Q125H/Q178H/Q39Y/R42S/S66N/T106N/T262R/W38E/Y61H)
HLA-DR DRB1*0901 (DR9) = HLA-DR DRB1*0901 (DR9) (Homo sapiens, UniProt P01903+P01911, A100R/A103E/D57H/D86V/F55Y/F60I/F76Y/I96F/K127E/L162R/M171V/P40D/Q125H/Q99R/R33Q/R42F/S133A/S66N/T210M/V115G/W38K/Y107V/Y59G/Y89S)
HLA-DR DRB1*0101 (DR1) = HLA-DR DRB1*0101 (DR1) (Homo sapiens, UniProt P01903+P01911, A100R/D57E/F55L/F60I/F76Y/I96L/L162R/M171V/P40L/Q125E/R42F/V115G/Y59C)
HLA-DR DRB4*0101 (DR53) = HLA-DR DRB4*0101 (DR53) (Homo sapiens, UniProt P01903+P13762, G164S); details: DRB4 *0101
HLA-DR DRB1*0401 (DR4) = HLA-DR DRB1*0401 (DR4) (Homo sapiens, UniProt P01903+P01911, A100K/A169T/F76Y/I96L/K127E/L162R/M171V/N62H/P40V/Q125Y/R42H/S133A/S149N/S66Y/V115G/V209L/W38E)
HLA-DR DRB1*1501 (DR15) = HLA-DR DRB1*1501 (DR15) (Homo sapiens, UniProt P01903+P01911); details: DRBI *1501

Chain of HLA-DR DRB1*1302 (DR13) (P01903 26-254 limits assumed, other chains not shown): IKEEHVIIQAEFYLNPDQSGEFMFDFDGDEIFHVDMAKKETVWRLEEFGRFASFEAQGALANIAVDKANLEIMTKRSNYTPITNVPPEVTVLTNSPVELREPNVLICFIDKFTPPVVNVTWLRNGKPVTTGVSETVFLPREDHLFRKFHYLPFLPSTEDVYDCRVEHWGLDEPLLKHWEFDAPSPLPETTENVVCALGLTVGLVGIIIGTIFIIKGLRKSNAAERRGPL
Chain of HLA-DR DRB1*0301 (DR3) (P01903 26-254 limits assumed, other chains not shown): as above
Chain of HLA-DR DRB1*1101 (DR11) (P01903 26-254 limits assumed, other chains not shown): as above

| Molecule | pIC50 (HLA-DR DRB5*0101 (DR51)) | pIC50 (HLA-DR DRB1*0101 (DR1); DRB1 *0101) | pIC50 (HLA-DR DRB4*0101 (DR53)) | pIC50 (HLA-DR DRB1*0701 (DR7); DRB1 *0701) | pIC50 (HLA-DR DRB1*0901 (DR9); read-out: DRB1 *0901) | pIC50 (HLA-DR DRB1*0401 (DR4); read-out: DRB1 *0401) | pIC50 (HLA-DR DRB1*0101 (DR1); read-out: DRB1 *0101) | pIC50 (HLA-DR DRB1*0802 (DR8)) | pIC50 (HLA-DR DRB1*1501 (DR15)) | pIC50 (HLA-DR DRB1*0401 (DR4); DRB1 *0401) | also measured |
| --- | --- | --- | --- | --- | --- | --- | --- | --- | --- | --- | --- |
| QKQLLTNHLINTPK | – | – | – | – | – | – | – | – | – | – | pIC50 (HLA-DR DRB1*0802 (DR8); read-out: DRB1 *0802): 4.68; pIC50 (HLA-DR DRB1*0701 (DR7); read-out: DRB1 *0701): 5.36 |
| VQQLLMGALTVTCPL | 5.15 | 8.00 | 6.69 | 7.15 | – | – | – | – | – | – | pIC50 (HLA-DR DRB1*1302 (DR13)): 6.24; pIC50 (HLA-DR DRB1*1101 (DR11)): 4.96; pIC50 (HLA-DR DRB1*0301 (DR3)): 4.47; pIC50 (HLA-DR DRB1*0901 (DR9); DRB1 *0901): 6.74 |
| GYKVLVLNPSV | – | – | – | – | 5.06 | 7.57 | 7.80 | – | – | – | pIC50 (HLA-DR DRB1*0301 (DR3); read-out: DRB1 *0301): 4.14 |
| YILLKKILSSRFNQM | 7.08 | 6.66 | 6.47 | 8.08 | – | – | – | 7.74 | 7.59 | 6.74 | – |
| KKCLNEILIRCHCQ | – | – | – | – | 5.40 | – | 5.03 | – | – | – | – |
| MIMIKFMGVIYIMII | – | 5.54 | – | 4.17 | – | – | – | 4.18 | – | 6.51 | – |
| VLDLYPEPTDLYCYE | < 4.82 | 4.95 | 7.74 | < 4.14 | – | – | – | – | 4.67 | 6.69 | pIC50 (HLA-DR DRB1*1302 (DR13)): < 4.92; pIC50 (HLA-DR DRB1*1101 (DR11)): < 4.82; pIC50 (HLA-DR DRB1*0301 (DR3)): 6.92; pIC50 (HLA-DR DRB1*0901 (DR9); DRB1 *0901): < 4.49 |
| LGFLQRSSNTQTQK | – | – | – | – | 5.87 | 7.74 | – | – | – | – | pIC50 (HLA-DR DRB1*0701 (DR7); read-out: DRB1 *0701): 6.38 |
| SMEYKKDFLITARKP | – | – | – | – | – | 7.62 | – | – | – | – | pIC50 (HLA-DR DRB1*0802 (DR8); read-out: DRB1 *0802): 5.05; pIC50 (HLA-DR DRB1*0701 (DR7); read-out: DRB1 *0701): 6.11 |
| LQQMLLGTLQVVCPG | 4.53 | 6.77 | 5.99 | 6.03 | – | – | – | – | – | 5.83 | pIC50 (HLA-DR DRB1*1302 (DR13)): 6.40; pIC50 (HLA-DR DRB1*1101 (DR11)): < 4.50; pIC50 (HLA-DR DRB1*0901 (DR9); DRB1 *0901): 5.77 |
| RTVYRDNNPYGVCIM | – | – | – | – | 4.62 | 7.70 | 6.28 | – | – | – | – |
| NVNLQKQLLTNHLIN [NVNLQKQLLTNHLIN] | < 5.14 | 7.02 | 6.45 | 6.26 | – | – | – | 4.95 | 5.35 | 5.61 | – |
| ALLIIPPKIHISIEL | 5.15 | 6.19 | 8.00 | 8.08 | – | – | – | 4.92 | 5.74 | 5.76 | – |
| QAISPRTLNSPAIF | – | – | – | – | 3.54 | 5.21 | 5.71 | – | – | – | pIC50 (HLA-DR DRB1*0301 (DR3); read-out: DRB1 *0301): 3.53; pIC50 (HLA-DR DRB1*0701 (DR7); read-out: DRB1 *0701): 4.40 |
| ILFLVKMNALRRLPV | 7.85 | 9.10 | 8.12 | 7.25 | – | – | – | 7.72 | 8.85 | 8.25 | – |
| TYSYSFDSLFSAVKN | – | – | – | – | – | 7.14 | – | – | – | – | pIC50 (HLA-DR DRB1*0802 (DR8); read-out: DRB1 *0802): 5.65 |
| SKIMKLPKLPISNGK | – | 6.08 | – | 4.08 | – | – | – | 6.96 | – | 5.19 | – |
| CC[C@H](C)[C@H](NC(=O)[C@H](CC(C)C)NC(=O)[C@H](CCCCN)NC(=O)[C@H](CCCCN)NC(=O)[C@@H](N)Cc1ccc(O)cc1)C(=O)N[C@@H](CCSC)C(=O)N[C@@H](Cc1ccc(O)cc1)C(=O)N[C@@H](CO)C(=O)N[C@@H](C)C(=O)N[C@@H](Cc1c[nH]cn1)C(=O)N[C@@H](CC(=O)O)C(=O)N[C@H](C(=O)N[C@H](C(=O)N[C@H](C(=O)N[C@@H](CO)C(=O)O)C(C)C)[C@@H](C)O)[C@@H](C)O | 5.26 | 7.77 | 8.24 | – | – | – | – | – | 7.82 | – | pIC50 (HLA-DR DRB1*1302 (DR13)): 7.43; pIC50 (HLA-DR DRB1*1101 (DR11)): 6.68; pIC50 (HLA-DR DRB1*0301 (DR3)): 4.64; pIC50 (HLA-DR DRB1*0901 (DR9); DRB1 *0901): 6.97 |
| QLQQFQKEDAAVTLY | – | – | – | – | 4.26 | – | 7.07 | – | – | – | pIC50 (HLA-DR DRB1*0701 (DR7); read-out: DRB1 *0701): 6.30 |
| LCNFKKNIIALLIIP | – | – | – | – | – | 6.51 | 8.01 | – | – | – | pIC50 (HLA-DR DRB1*0802 (DR8); read-out: DRB1 *0802): 4.67 |
